Like-named read-outs stand apart in the source and are kept apart here.
Key:
[1] = Particle size parameter test (BT-2900 image particle size analysis system); format: physicochemical; details: for Average particle size / D10 / D50 / D90: quantity distribution, image particle size analysis
Excerpt: (§1) Example 4. Particle Size Parameters and Powder Characteristics (Quantity Distribution) of L-Arabinose

[2] = Flowability test (particle and powder characteristic analyzer, FT-102D); format: physicochemical
Excerpt: as §1
Example 13. Performance Test Results for the Granules of the Present Disclosure

[3] = test system: SPF mice; assay: Bowel preparation in mice; format: in vivo
Procedure: 5.1 Experimental animals and feeding thereof: SPF (Specific pathogen free) mice, 6 weeks old; normal feed was D12450-B feed: 67.35 wt % carbohydrates, 19.2 wt % crude protein, 4.3 wt % fat. The temperature of the room was kept at 24-26° C. with humidity at 40-60%.
5.2 Experimental method and procedure:
The SPF mice were randomly divided into a blank control group, a positive control group and a treatment group, 20 mice per group, half being male and half female. Administration method: Animals in each group were fasted (water was accessible) from last 22:00 before the day of experiment, were each given ⅓ the calculated amount of drug by intragastrical administration at 7:00, 9:00 and 11:00 on the day of experiment, were each given 0.1 mL of purified water at 12:00, 13:00 and 14:00, and were dissected 3.5 h after the last administration.

[4] = test system: Humans; assay: Bowel preparation in humans; format: in vivo
Procedure: Administration Sample: L-Arabinose Prepared in Example 1 Subject: weighing 73 kg Administration Regimen: The subject drank water normally on an empty stomach after getting up in the morning. At 10:06, the subject dissolved 30 g of L-arabinose in about 100-150 mL of mineral water and consumed the solution in about 5 min.

[5] = Granularity distribution of sample (standard sieve); format: physicochemical; details: for Granularity distribution of sample (standard sieve) 20-80 mesh / Granularity distribution of sample (standard sieve) <80 mesh / Granularity distribution of sample (standard sieve) >20 mesh: Example 8 samples, seed crystal specification and fed-batch time varied
Procedure: 1 kg of L-arabinose starting material was dissolved in 1.2 kg of purified water at 60° C. After the solution was completely clear, 1 g of activated carbon ([…] of the L-arabinose) was added. The mixture was incubated at 60° C. for 30 min and then subjected to suction filtration under vacuum successively through 25 μm and 0.45 μm filter membranes to remove the activated carbon, and a clear filtered sugar liquid (about 1800 mL in volume) was obtained. About 800 mL of the clear filtered sugar liquid was added to a three-necked flask, and stirred and evaporated under reduced pressure in a water bath set at a temperature of 62° C. until the sugar degree reached 58-60% Brix. A proper amount of L-arabinose was added as seed crystals (as shown in Table 8-1 below, seed crystal with different specifications was selected: 40-60 mesh, 16.5 g; 60-80 mesh, 6 g; 80-100 mesh, 1.5 g). The mixture was stirred (double-layered type of stirring, with two-half-crescent type for the lower layer and three-bladed propeller type for the upper layer) at a rate of 90-110 rpm until the seed crystal was completely dispersed. Then the sugar liquid was added at a rate of 50-100 mL/h in a fed-batch manner for a time period of 12/18 h. After the fed-batch addition was completed, the concentrating was continued for 1-2 h. It was about 14 h from the time the seed crystal was added to the time of discharging.
According to the results shown in Table 8-1, the specific surface area of the seed crystal of 80-100 mesh is relatively […] compared with that of the seed crystal of other specifications (as shown in Table 8-2), but the particle size distribution of the sample obtained by experiment is relatively uniform: the proportion of 20-80 mesh is more than 89.7%, and the maximum proportion is more than 90%, which fully complies with the requirements of the existing pharmacopoeia (Chinese pharmacopoeia (2020)) for granules: granules cannot pass through a No. 1 sieve (10 mesh, 2000 μm) and the total quantity of granules which can pass through a No. 5 sieve (80 mesh, pore size of […]) should not exceed 15%.

[6] = listed as Example 10 sample of batch 1ª
[7] = post-centrifugation sampling-manual material spreading and drying oven drying
[8] = screw feeding-back-mixing bed drying
[9] = listed as Example 10 sample of batch 2ª

SMILES	Average particle size [1]	D10 [1]	D50 [1]	D90 [1]	Bulk density [2]	Carr flowability index [2]	Compressibility [2]	Floodability index [2]	Flowability (Hausner ratio) [2]	Hausner ratio [2]	Tap density [2]	Granularity distribution of sample (standard sieve) 20-80 mesh [5]	Granularity distribution of sample (standard sieve) <80 mesh [5]	Granularity distribution of sample (standard sieve) >20 mesh [5]	Angle of repose [2]	20-80 mesh proportion of sample [5, 7]	further results
O[C@@H]1[C@@H](O)[C@@H](O)CO[C@H]1O [Commercial product (T1)]	75 μm	27 μm	63 μm	137 μm	0.55 g/mL	79	40.2%	75	Very poor	1.7	0.93 g/mL	–	–	–	–	–	Angle of repose ([2]; in ° (unit assumed)): 51.05
O[C@@H]1[C@@H](O)[C@@H](O)CO[C@H]1O [Commercial product (Y1)]	33 μm	11 μm	30 μm	63 μm	0.5 g/mL	79	41.4%	75	Very poor	1.7	0.85 g/mL	–	–	–	–	–	Angle of repose ([2]; in ° (unit assumed)): 51.73
O[C@@H]1[C@@H](O)[C@@H](O)OC[C@@H]1O [Example 1, β-L-(+)-arabinose]	149 μm	49 μm	138 μm	261 μm	0.7 g/mL	–	17.1%	75.0	Good	1.2	0.85 g/mL	71.2%	5.4%	23.4%	–	–	Dosage relative to the positive control group to achieve the same effect ([3]; 12 g/kg vs PEG 31.5 g/kg): 38%; Residue in the rectum and colon after the dissection ([3]; dissected 3.5 h after the last administration, L-arabinose 12 g/kg, PEG 31.5 g/kg): no residue was left in the rectum and colon; Stools observed before the dissection ([3]; intragastrical, three doses, L-arabinose 12 g/kg, PEG 31.5 g/kg): Watery and loose stools; span ([1]; particle size analysis): 0.985; Stool passed, first bathroom visit ([4]; 30 g oral, at 10:42 (dose at 10:06)): loose stool; Stool passed, second bathroom visit ([4]; 30 g oral, at 11:11): watery stool; Stool passed, third bathroom visit ([4]; 30 g oral, at 11:55): watery stool with little residue; Stool passed, fourth bathroom visit ([4]; 30 g oral, at 13:27): light yellow watery stool without residue; Time from administration to first stool ([4]; one subject, 30 g oral in 100-150 mL water): About 40 min; Angle of repose ([2]; in ° (unit assumed)): 40.01
O=C[C@H](O)[C@@H](O)[C@@H](O)CO [Example 2, L-arabinose]	189 μm	82 μm	182 μm	299 μm	0.6	102.5	20.6	75.0	Good	1.3	0.76	61	1	38	38.95	–	–
O=C[C@H](O)[C@@H](O)[C@@H](O)CO [Example 3, L-arabinose]	125 μm	43 μm	109 μm	232 μm	0.56	99	24.3	75.0	Good	1.2	0.74	81.6	1.5	16.9	38.76	–	–
O=C[C@H](O)[C@@H](O)[C@@H](O)CO [Example 10 Sample of batch 1^b, L-arabinose]	182 μm	78 μm	174 μm	296 μm	–	–	–	–	–	–	–	–	–	–	–	–	–
O=C[C@H](O)[C@@H](O)[C@@H](O)CO [Example 10 Sample of batch 2^b, L-arabinose]	189 μm	79 μm	168 μm	331 μm	–	–	–	–	–	–	–	–	–	–	–	–	–
O=C[C@H](O)[C@@H](O)[C@@H](O)CO [Example 10 batch 1, L-arabinose]	–	–	–	–	0.7	–	17.1	75.0	Good	1.2	0.85	–	–	–	40.01	93.0%	Average particle size [1, 6]: 134.5 μm; D10 [1, 6]: 48.4 μm; D50 [1, 6]: 125.1 μm; D90 [1, 6]: 230.6 μm; 20-80 mesh proportion of sample [5, 8]: 66.4%
O=C[C@H](O)[C@@H](O)[C@@H](O)CO [Example 10 batch 2, L-arabinose]	–	–	–	–	0.68	102.5	15.9	75.0	Good	1.2	0.81	–	–	–	30.95	96.4%	Average particle size [1, 9]: 129.2 μm; D10 [1, 9]: 41.88 μm; D50 [1, 9]: 116.4 μm; D90 [1, 9]: 237.9 μm; 20-80 mesh proportion of sample [5, 8]: 79.8%
O=C[C@H](O)[C@@H](O)[C@@H](O)CO [Example 11, L-arabinose]	148.8 μm	164.8 μm	288.1 μm	448.8 μm	0.5	102.0	23.1	75.0	Acceptable	1.3	0.65	–	–	–	34.29	90.6%	–
O=C[C@H](O)[C@@H](O)[C@@H](O)CO [Example 12, L-arabinose]	185.5 μm	175.1 μm	305.2 μm	481.8 μm	0.48	99	24.4	75.0	Good	1.3	0.64	–	–	–	39.74	93.57%	–
O=C[C@H](O)[C@@H](O)[C@@H](O)CO [Example 14, L-arabinose]	–	–	–	–	–	–	–	–	–	–	–	–	–	–	–	94.3%	20-80 mesh proportion of sample ([5]; star valve unloading-back-mixing bed drying): 89%
O[C@@H]1[C@@H](O)[C@@H](O)CO[C@H]1O [No. 5]	–	–	–	–	–	–	–	–	–	–	–	89.7%	3%	7.3%	–	–	–

From patent US12655169B2, “Arabinose and preparation and use thereof” (THOMSON BIOTECH (XIAMEN) PTE. LTD., priority 2022, dated 2026)
